Source: patent publication US20100286262A1, “PTGS2 HAPLOTYPES” (priority 2007, published 2010)

What was measured:
[1] = system: colorectal cancer patients (stage II/III) after potentially curative therapy; assay: VICTOR trial: disease-free survival and recurrence; format: in vivo, human
Protocol: (§1) This was a phase III randomised, placebo-controlled double-blind trial of R in patients after potentially-curative surgery and completion of adjuvant therapy for stage II/III CRC. 7000 patients were planned to receive 25 mg R daily or an identical placebo (P) for 2 or 5 years, however the trial was terminated early after the worldwide withdrawal of R. A revised protocol and statistical analysis plan permitted detection of a reduction (HR=0.75) in risk of death with 87% power, with one pre-planned event-driven interim analysis.
(§2) Patients were randomly assigned to receive R or P at 151 hospitals in the United Kingdom. Inclusion criteria included: histologically proven stage II and III colorectal carcinoma in patients who had undergone complete resection of the primary tumour; WHO Performance Status 0 or 1; haematological, liver and renal function within the normal range. All patients had completed potentially curative therapy (surgery+/−radiotherapy+/−chemotherapy) 12 or fewer weeks previously and had given written informed consent. Patients with active peptic ulceration or gastrointestinal bleeding in the past year, a history of adverse reactions to NSAIDs, or a known sensitivity to R were excluded, as were those receiving long-term NSAID therapy (except for low-dose aspirin, <100 mg per day), those younger than 18 years, and women who were pregnant, lactating, or premenopausal but not using contraception. Patients with a history of cancer (other than adequately treated in situ carcinoma of the cervix, basal or squamous-cell carcinoma), inflammatory bowel disease, or severe congestive heart failure were also excluded.
(§3) It was planned to randomly allocate R (one 25-mg tablet daily) or identical P to 7000 patients, with half of each group receiving the study drug for 2 or 5 years. Suitable patients were randomly assigned in a double blind fashion to R or P through the VICTOR Trial Office, which supplied drugs to participating hospitals every 6 months. Minimisation was used to balance allocations by stage (II, III), disease site (colon, rectum, recto-sigmoid), age (<50, 50-59, 60-69, 70+) prior adjuvant chemotherapy and radiotherapy.
(§4) Data-collection forms were amended to solicit baseline data on cardiovascular risk factors, for all patients After worldwide withdrawal of rofecoxib all investigators and patients were informed, study treatment was stopped, and follow-up continued, at 3, 6, 12, 18 and 24 months after randomisation and annually thereafter. Patients received a colonoscopy 1-2 years after primary surgery and 2- to 3-yearly thereafter; a CT scan about 1 year after surgery; clinical examination and routine blood tests at outpatient visits. All recurrences were confirmed by CT or MRI scan and patients were flagged for survival with the UK's Office of National Statistics. Adverse event data were recorded systematically throughout the study and were reviewed by the trials team (RM, DJK and MJL) to clarify diagnoses.
(§5) The original study was powered to detect a reduction in risk of death between treatments for stage II and stage III separately, (hazard ratio 0.80), with type I error 0.05. The modified statistical plan, after premature closure with 2434 patients, permitted detection of a reduction in risk of death of HR 0.75, 87% power, with type I error 0.05, and one interim analysis specified according to an O'Brien-Fleming alpha-spending rule when there were 350 events. The threshold for statistical significance for OS at this analysis is p<0.01325. OS, the primary endpoint, was measured from randomisation to death from any cause. Secondary endpoints include DFS, measured from randomisation to recurrence or death from any cause and recurrence-free survival, measured from randomisation to recurrence and/or colorectal cancer death. This is the report of the interim analysis, with 368 deaths. Kaplan-Meier curves and log-rank analysis were used for comparisons of OS and DFS. Subgroups were examined using HR plots. […]

[2] = system: colorectal cancer patients (stage II/III) after potentially curative therapy; assay: VICTOR phase III randomised placebo-controlled trial of rofecoxib: overall survival; format: in vivo, human
Protocol: as §1, §2, §3, §4, §5

`CS(=O)(=O)c1ccc(C2=C(c3ccccc3)C(=O)OC2)cc1` [rofecoxib, 3-phenyl-4-(4(methylsulfonyl)phenyl)-2-(5H)-furanone] was tested, and the “number of patients still at risk (disease free survival, data of FIG. 6)” value (shortened to “number … (disease free survival, data of FIG. 6)”) ([1]; 1 year from randomisation) was 1031, the “number … (disease free survival, data of FIG. 6)” value ([1]; 2 years from randomisation) was 824 and the “number … (disease free survival, data of FIG. 6)” value ([1]; 3 years from randomisation) was 449. The “number … (disease free survival, data of FIG. 6)” value ([1]; 4 years from randomisation) was 114, the “number … (disease free survival, data of FIG. 6)” value ([1]; 5 years from randomisation) was 7 and the “HR for death or recurrence adjusted for stage, age, radiotherapy group and gender” value ([1]; 95% CI 0.78, 1.07, p=0.30) was 0.91. The “HR for disease recurrence or death from any cause (DFS), R compared with P” value ([1]; 95% CI 0.78 to 1.07, P=0.25) was 0.91, the “3-year DFS rate” value ([1]; 95% CI 72.0 to 77.3, P group 72.6%) was 74.7% and the “Number of colorectal cancer recurrence events” value ([1]; 297 in P arm) was 271. For the same compound, the “Number of DFS events” value ([1]; 316 in P group) was 291, the “HR for colorectal cancer recurrence” value ([1]; R vs P, 95% CI 0.77-1.06, p=0.22) was 0.90 and the “DFS events in the first year at risk from randomisation” value ([1]; non-prespecified analysis, vs 145 in P, p=0.07) was 117. For the same compound, the “Overall benefit in disease-free or overall survival (in words)” value ([1]; specified analyses) was “no overall benefit”, the “Recurrences in year 2” value ([1]; vs 88 in P arm) was 99 and the “Recurrences in the first year” value ([1]; vs 141 in P arm, p=0.06) was 112. For the same compound, the “DFS events, year 2 onwards” value ([1]; vs 171 in P, p=0.97) was 174, the “Number of patients still at risk (overall survival, FIG. 5)” value (“Number … (overall survival, FIG. 5)” below) ([2]; 0 years from randomisation) was 1217 and the “Hazard ratio (HR) for dying from any cause (overall survival), R compared with P” value ([2]; 25 mg daily, intention-to-treat, 1217 vs 1217, 95% CI 0.77 to 1.16, P=0.57) was 0.94. The “Number … (overall survival, FIG. 5)” value ([2]; 1 year from randomisation) was 1152, the “Number … (overall survival, FIG. 5)” value ([2]; 2 years from randomisation) was 1012 and the “Number … (overall survival, FIG. 5)” value ([2]; 3 years from randomisation) was 663. The “Number … (overall survival, FIG. 5)” value ([2]; 4 years from randomisation) was 219, the “Number … (overall survival, FIG. 5)” value ([2]; 5 years from randomisation) was 21 and the “Number of deaths without recurrent disease” value ([2]; 14 in P group) was 15. For the same compound, the 3-year Kaplan-Meier OS rate ([2]; 95% CI 85.7 to 89.6, P group 86.6) was 87.6%, the “HR for colorectal cancer-specific mortality” value ([2]; R vs P, 95% CI 0.75-1.15, p=0.50) was 0.93 and the “Patient deaths with no reported cause” value ([2]; each group) was “Five”. For the same compound, the Number of deaths ([2]; over the study period, 191 in placebo group) was 177 and the “HR for dying adjusted for stage, age, radiotherapy group and aspirin use at baseline” value ([2]; proportional hazards analysis, 95% CI 0.78-1.17, p=0.64) was 0.95.
